# Laboratory results taken from US12629370B2, “Treatment of prostate cancer” (Sumitomo Pharma Co., Ltd., priority 2016, dated 2026).
# “And” between values parts separate entries of the source, which are not always exact repeats. Equal values may be shown once.
# Tests used:
# [1] = tested on: patients with advanced prostate cancer; assay: Example 8: treatment-emergent adverse events (safety population)
# Procedure: The core tablets were coated with a film coating comprising hypromellose 2910 (21.36 mg), titanium dioxide (2.4 mg), and red ferric oxide (0.06 mg).
# For patients receiving leuprolide acetate (leuprorelin), on-treatment study visits occurred at baseline (day 1, week 1), day 1 of weeks 2, 3, and 5, and then every 4 weeks until week 25, and then at 12 week intervals (week 37 and 49). Patients on leuprorelin received their final injection at week 37, day 1, and the week 49, day 1 visit was considered the end of leuprorelin exposure. Patients receiving leuprorelin at visits at 16 (EOT), 20 (follow-up visit), and 24 (EOS) weeks after the last leuprorelin injection.
# Efficacy and safety analyses were conducted using a safety population (received ≥1 dose of study drug). […] Safety was assessed by recording the incidence, severity, and types of treatment-emergent adverse events; by physical examination (including slit lamp examination of the anterior eye); and by evaluating changes from baseline in weight, vital signs, 12-lead electrocardiogram (ECG), and clinical laboratory parameters. […] Adverse events were coded using the Medical Dictionary for Regulatory Activities version 19.0 and graded according to National Cancer Institute Common Terminology Criteria version 4.03 (Tables 7 and 8). Safety-related haematology, chemistry, and urinalysis measurements were taken at each study visit and analysed at a central laboratory (LabCorp). Phospholipidosis was assessed as part of the safety assessments.
# serum PSA = assay: Example 6: serum PSA (CLEIA); type: in vivo, human
# Procedure: This study consisted of two parts: Part A, a dose-rising phase, and Part B, an expansion phase. Whether or not the study would proceed to the next cohort or to Part B was determined through assessment of tolerability at the present dose, based on the incidence of adverse effects during the evaluation period.
# Subjects in Cohort 1 received a load dose of 320 mg and a maintenance dose of 80 mg; subjects in Cohort 2 received a load dose of 320 mg and a maintenance dose of 120 mg; subjects in Cohort 3 received a load dose of 320 mg and a maintenance dose of 160 mg; and subjects in Cohort 4 received a load dose of 360 mg and a maintenance dose of 120 mg.
# In addition to the safety assessments, efficacy assessments were also performed according to the study schedule, and the Compound 1 formulation was administered until each subject met the discontinuation criteria.
# [2] = tested on: serum LH, FSH, DHT and SHBG; assay: Example 6: serum LH, FSH, DHT and SHBG; type: in vivo, human; conditions: for serum LH, FSH and DHT concentrations: all dose levels
# [3] = Example 7: serum testosterone lowering in healthy men; type: in vivo; conditions: male, human, plasma, oral, maintenance doses of 80 mg or greater
# FIG. 22 = assay: FIG. 22
# Excerpt: Table printed on a drawing sheet, FIG. 22
# First reader's note: The rows 'Plasma' and 'Urine' are section headings giving the matrix; the raised marks a and c are printed, but their footnotes are not on the sheet, and the meaning of the values in brackets is not stated.)
# serum testosterone [4] = assay: Example 6: serum testosterone (CLIA) in men with non-metastatic prostate cancer, Parts A and B; type: in vivo, human
# serum testosterone [5] = assay: Example 9: serum testosterone, castration and recovery, neoadjuvant/adjuvant ADT to EBRT, versus degarelix; type: in vivo, human
# Procedure: Eligible male patients were aged ≥18 years with a histologically confirmed diagnosis of localized, intermediate-risk prostate cancer, for whom 6-month neoadjuvant and adjuvant androgen deprivation therapy (ADT) to external beam radiation therapy (EBRT) was indicated. The criteria for establishing intermediate-risk prostate cancer included the presence of one of the following, without any high-risk feature: T2b-T2c disease, Gleason score 7, or prostate-specific antigen (PSA) 10-20 ng/mL. […] Based on investigator discretion and clinical assessment of the patient's overall medical and disease status, participation was allowed for older patients with high-risk disease (e.g., based on Gleason score or tumor status) who were deemed likely to benefit from 6 months of neoadjuvant/adjuvant ADT.
# Both treatment arms received treatment for 24 weeks. […] EBRT began no later than day 1, week 17. […]
# Samples for testosterone, luteinizing hormone (LH), FSH, and PSA concentrations were taken at screening, on day 1 of the first week (additionally days 2 and 4 for testosterone and LH), and on day 1 of weeks 2, 3, 5, 9, 13, 17, 21, 25, 29, 33, and 37 thereafter.
# [6] = Part A Day 28, Cohort 1 (320 mg load, 80 mg QD)
# [7] = Part A Day 28, Cohort 2 (320 mg load, 120 mg QD)
# [8] = Part A Day 28, Cohort 3 (320 mg load, 160 mg QD)
# [9] = Part B Week 13 Day 1 (LOCF), 120 mg group
# [10] = subjects with at least 24 weeks of treatment
compound,measurement,setting,value
"CONC(=O)Nc1ccc(-c2sc3c(c2CN(C)C)c(=O)n(-c2ccc(OC)nn2)c(=O)n3Cc2c(F)cccc2F)cc1 [Compound 1, N-(4-(1-(2,6-difluorobenzyl)-5-((dimethylamino)methyl)-3-(6-methoxy-3-pyridazinyl)-2,4-dioxo-1,2,3,4-tetrahydrothieno[2,3-d]pyrimidin-6-yl)phenyl)-N′-methoxyurea]","Acute coronary syndrome, Grade ≥3",[1]; 80 mg QD,0 n (%)
same,Death (Table 7),[1]; 80 mg QD,1 (2) n (%)
same,"Death, Grade ≥3 (Table 8)",[1]; 80 mg QD,0 n (%)
same,"Sudden death, Grade ≥3",[1]; 80 mg QD,0 n (%)
same,"Acute coronary syndrome, Grade ≥3",[1]; 120 mg QD,1 (2) n (%)
same,Death (Table 7),[1]; 120 mg QD,0 (0) n (%)
same,"Death, Grade ≥3 (Table 8)",[1]; 120 mg QD,1 (2) n (%)
same,"Sudden death, Grade ≥3",[1]; 120 mg QD,1 (2) n (%)
same,overall safety profile,[1]; in vivo,appeared similar to that seen in the smaller observational leuprorelin cohort
same,mean percentage change from baseline in serum PSA,serum PSA; [6],−76.37%
same,median percentage change from baseline in serum PSA,serum PSA; [6],−77.50%
same,mean percentage change from baseline in serum PSA,serum PSA; [7],−60.10%
same,median percentage change from baseline in serum PSA,serum PSA; [7],−72.30%
same,mean percentage change from baseline in serum PSA,serum PSA; [8],−32.10%
same,median percentage change from baseline in serum PSA,serum PSA; [8],−50.50%
same,median percentage change from baseline in serum PSA,"serum PSA; Part B Week 13 Day 1 (LOCF), 80 mg group",−97.20%
same,mean percentage change from baseline in serum PSA,serum PSA; [9],−93.11%
same,median percentage change from baseline in serum PSA,serum PSA; [9],−95.80%
same,"serum SHBG, baseline versus postdose",[2]; Part A,no particular changes
same,"serum LH, FSH and DHT concentrations",[2]; Part A,rapidly suppressed
same,"serum SHBG, baseline versus postdose",[2]; Part B,no particular changes
same,"serum LH, FSH and DHT concentrations",[2]; Part B,rapidly suppressed
same,concentration at 28 days,[3],> 4 ng/mL
same,AUC0-24 (ng•h/mL),FIG. 22,1358 (53.1) ng•h/mL and 1878 (51.9) ng•h/mL
same,CLr (L/h),FIG. 22,7.29 (13.2) L/h and 7.25 (36.2) L/h and 7.36 (25.9) L/h
same,Fe (%),FIG. 22,0.934 (39.4) % and 2.20 (74.7) % and 2.61 (62.3) % and 3.43 (29.4) %
same,time for mean serum testosterone to fall below medical castration levels (below 50 ng/dL),"serum testosterone [4]; Part A, load dose then maintenance 80, 120 or 160 mg QD",up to 3 days
same,when serum testosterone achieved medical castration levels in all subjects,"serum testosterone [4]; Part A, maintained up to 3 days after last dose on Day 28",between Day 2 and Day 14
same,time for mean serum testosterone to be suppressed below medical castration levels (below 50 ng/dL),"serum testosterone [4]; Part B, 320 mg load then 80 or 120 mg QD",≤ 4 days
same,when serum testosterone reached medical castration levels in all subjects,"serum testosterone [4]; Part B, maintained throughout evaluation period",between Day 2 and Week 3
same,visit by which average serum testosterone decreased below medical castration threshold of 50 ng/dL,serum testosterone [5]; 120 mg QD after 320 mg load,Day 4
same,visit by which average serum testosterone decreased below profound castration threshold of 20 ng/dl,serum testosterone [5]; 120 mg QD after 320 mg load,Week 5 Day 1
same,"Kaplan-Meier estimate (95% CI) of testosterone recovery, probability of event",serum testosterone [5]; 4 weeks from last dose,0.03 (0.00.0.08)
same,Percent recovery (95% CI) to baseline testosterone or >280 ng/dL,serum testosterone [5]; 4 weeks from last dose,3.1 (0.4.10.7) %
same,"Kaplan-Meier estimate (95% CI) of testosterone recovery, probability of event",serum testosterone [5]; 8 weeks from last dose,0.24 (0.13.0.34)
same,Percent recovery (95% CI) to baseline testosterone or >280 ng/dL,serum testosterone [5]; 8 weeks from last dose,23.1 (13.5.35.2) %
same,"Kaplan-Meier estimate (95% CI) of testosterone recovery, probability of event",serum testosterone [5]; 12 weeks from last dose,045 (0.33.0.58)
same,Median testosterone,serum testosterone [5]; Baseline,355.7 ng/dL
same,Testosterone Median,serum testosterone [5]; Baseline,12.350 nmol/L
same,Testosterone Mean (Std Dev),"serum testosterone [5]; Baseline, Compound 1 120 mg QD or degarelix 80 mg Q4W",14.067 (6.7100) nmol/L
same,Testosterone Median,serum testosterone [5]; EOS,8.920 nmol/L
same,Testosterone Mean (Std Dev),serum testosterone [5]; EOT,5.117 (5.7671) nmol/L
same,Testosterone Median,serum testosterone [5]; EOT,3.260 nmol/L
same,Testosterone Mean (Std Dev),serum testosterone [5]; Follow-Up,9.889 (6.3879) nmol/L
same,Testosterone Median,serum testosterone [5]; Follow-Up,8.275 nmol/L
same,time after start of dosing at which serum testosterone was on average below medical castration levels,serum testosterone [5]; Week 1 Day 4,72 h
same,Median testosterone,serum testosterone [5]; Week 24,8.1 ng/dL
same,Testosterone Mean (Std Dev),"serum testosterone [5]; Week 25, Day 1",0.395 (0.5584) nmol/L
same,Testosterone Median,"serum testosterone [5]; Week 25, Day 1",0.280 nmol/L
same,Median testosterone,serum testosterone [5]; Week 28/EOT visit,93.9 ng/dL
same,Median testosterone,serum testosterone [5]; Week 32/follow-up,238.3 ng/dL
same,Median testosterone,serum testosterone [5]; Week 36/EOS,256.9 ng/dL
same,patients recovered to baseline testosterone or >280 ng/dL,serum testosterone [5]; by 8 weeks of follow-up,Nearly half
same,patients recovered to baseline testosterone or greater than 280 ng/dL,serum testosterone [5]; end of 12-week follow-up,approximately half
same,mean serum testosterone after removal of therapy,serum testosterone [5]; follow-up visit and end of study,approximately 10 nmol/L
same,Median time to medical castration (≤50 ng/dL),serum testosterone [5]; in vivo,4 days
same,Median time to profound castration (≤20 ng/dL),serum testosterone [5]; in vivo,15 days
same,medical castration rate (less than 50 ng/dL),"serum testosterone [5]; over 24 weeks, overall",95%
same,profound castration rate (less than 20 ng/dL),"serum testosterone [5]; over 24 weeks, overall",82%
same,Testosterone recovery (baseline or >280 ng/dL): number with events,serum testosterone [5]; overall safety population,34 (52) n (%)
same,Testosterone recovery: number censored,serum testosterone [5]; overall safety population,30 (46) n (%)
same,"Time to testosterone recovery, 25th percentile (95% CI)",serum testosterone [5]; overall safety population,57 (45.62) days
same,"Time to testosterone recovery, 75th percentile (95% CI)",serum testosterone [5]; overall safety population,127 (93.127) days
same,"Time to testosterone recovery, Median (95% CI)",serum testosterone [5]; overall safety population,"91 (62, 127) days and 91 (62.127) days"
same,median (95% CI) number of days to testosterone recovery,serum testosterone [5]; patients treated for at least 24 weeks,"86 (58, 93) days"
same,medical castration rate (less than 50 ng/dL),serum testosterone [5]; [10],98%
same,profound castration rate (less than 20 ng/dL),serum testosterone [5]; [10],84%
same,CLr (L/h),FIG. 20,7.57 (13.4) L/h and 8.11 (12.7) L/h and 9.24 (10.0) L/h and 8.64 (10.8) L/h
same,Fe (%),FIG. 20,2.95 (41.5) % and 2.05 (33.4) % and 1.46 (38.7) %
same,t1/2(h),FIG. 20,20.8 (5.2) h and 21.3 (20.0) h and 21.7 (8.9) h
